According to US10759795B2, “Aza-A-ring indenoisoquinoline topoisomerase I poisons” (Purdue Research Foundation, priority 2016, dated 2020):
Where “and” joins values, the source holds several entries; their conditions need not be identical. Equal values may be shown once. Where a name gives a salt, the structure may show the parent alone. Read-outs that look alike come from different tables or passages of the source.

How the values were obtained:
[1] = system: Prostate, DU-145; experiment: NCI-60 five-dose cytotoxicity assay, DU-145; settings: Homo sapiens, DU-145, read-out: Cytotoxicity GI50, Prostate, DU-145
Method: (§1) The new indenoisoquinolines were evaluated for cancer cell growth inhibitory activities. The National Cancer Institute's NCI-60 cytotoxicity assay measures the ability of test agents to inhibit the growth of approximately 60 different cancer cell lines. In the initial single-dose assay, cells are treated with a 10 μM dose of test agent. The growth of treated cells versus untreated cells is then compared. If a test agent induces a sufficiently low mean growth percent, it is promoted to five-dose testing to determine a mean graph midpoint (MGM) GI50 value. In five-dose testing, cells are treated with test agent concentrations ranging from 10^−8 to 10^−4 M. The concentration required to achieve 50% growth inhibition in a particular cell line is calculated. In situations in which this value is greater than 100 μM or less than 0.01 μM, it is recorded as 100 μM and 0.01 μM, respectively. The values for each of the tested cell lines are averaged to obtain a mean graph midpoint (MGM) GI50 value. MGM GI50 values are often, but not always, determined from two separate rounds (Table 1).

[2] = system: CNS, SF-539; experiment: NCI-60 five-dose cytotoxicity assay, SF-539; settings: Homo sapiens, CNSSF-539, read-out: Cytotoxicity GI50, CNS, SF-539
Method: as §1

[3] = system: Ovarian, OVCAR-3; experiment: NCI-60 five-dose cytotoxicity assay, OVCAR-3; settings: Homo sapiens, OVCAR-3, read-out: Cytotoxicity GI50, Ovarian, OVCAR-3
Method: as §1

[4] = system: Lung, HOP-62; experiment: NCI-60 five-dose cytotoxicity assay, HOP-62; settings: Homo sapiens, HOP-62, read-out: Cytotoxicity GI50, Lung, HOP-62
Method: as §1

[5] = system: Colon, HCT-116; experiment: NCI-60 five-dose cytotoxicity assay, HCT-116; settings: Homo sapiens, HCT-116, read-out: Cytotoxicity GI50, Colon, HCT-116
Method: as §1

[6] = system: Renal, SN12C; experiment: NCI-60 five-dose cytotoxicity assay, SN12C; settings: Homo sapiens, read-out: Cytotoxicity GI50, Renal, SN12C
Method: as §1

[7] = system: approximately 60 different cancer cell lines; experiment: NCI-60 five-dose cytotoxicity assay, mean graph midpoint; assay type: cell-based; settings: Homo sapiens, read-out: MGM: mean graph midpoint of growth inhibition (GI50)
Method: as §1

[8] = system: Melanoma UACC-62; experiment: NCI-60 five-dose cytotoxicity assay, UACC-62; settings: Homo sapiens, UACC-62, read-out: Cytotoxicity GI50, Melanoma UACC-62
Method: as §1

[9] = system: Breast, MCF7; experiment: NCI-60 five-dose cytotoxicity assay, MCF7; settings: Homo sapiens, MCF7, read-out: Cytotoxicity GI50, Breast, MCF7
Method: as §1

[10] = target: T1, Top1 (Homo sapiens, UniProt P11387); experiment: Top1-mediated DNA cleavage assay; assay type: biochemical; settings: score based on the activity of 1 μM 1 (camptothecin); tested at 0.1, 1, 10, 100 μM
T1 sequence (P11387 1-765): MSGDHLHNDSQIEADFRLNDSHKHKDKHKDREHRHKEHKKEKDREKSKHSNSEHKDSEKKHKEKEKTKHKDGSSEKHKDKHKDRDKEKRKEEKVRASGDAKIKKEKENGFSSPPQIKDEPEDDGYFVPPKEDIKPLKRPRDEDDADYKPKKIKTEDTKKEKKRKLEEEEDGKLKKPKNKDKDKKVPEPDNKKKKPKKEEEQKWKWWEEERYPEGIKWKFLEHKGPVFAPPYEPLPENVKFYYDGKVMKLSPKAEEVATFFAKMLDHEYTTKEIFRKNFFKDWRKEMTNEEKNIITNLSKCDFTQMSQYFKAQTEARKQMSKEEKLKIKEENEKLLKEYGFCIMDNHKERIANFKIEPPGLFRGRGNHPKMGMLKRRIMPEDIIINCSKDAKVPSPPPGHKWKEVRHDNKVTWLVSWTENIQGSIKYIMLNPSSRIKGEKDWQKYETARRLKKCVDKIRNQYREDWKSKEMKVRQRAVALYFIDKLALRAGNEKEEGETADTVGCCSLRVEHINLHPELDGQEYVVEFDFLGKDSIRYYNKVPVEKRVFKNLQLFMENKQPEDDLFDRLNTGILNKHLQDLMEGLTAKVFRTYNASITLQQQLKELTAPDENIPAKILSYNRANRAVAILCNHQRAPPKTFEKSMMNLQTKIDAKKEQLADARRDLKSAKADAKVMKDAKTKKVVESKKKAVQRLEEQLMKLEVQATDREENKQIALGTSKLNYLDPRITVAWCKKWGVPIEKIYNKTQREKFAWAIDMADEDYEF
Method: Approximately 2 nM radiolabeled DNA substrate was incubated with recombinant Top in 20 μL of reaction buffer [10 mM Tris-HCl (pH 7.5), 50 mM KCl, 5 mM MgCl2, 0.1 mM EDTA, and 15 μg/mL BSA] at 25° C. for 20 min in the presence of various concentrations of test compounds. […] Aliquots of each reaction mixture were subjected to 20% denaturing PAGE.
The Top1-mediated DNA cleavage assay was used to measure Top1 inhibitory activity. This assay measures the ability of the compound to stabilize DNA cleavage in a 3′-[^32P]-labeled DNA substrate via Top1 poisoning.

[11] = target: T1, Top1; settings: background statement; cited from earlier work
[12] = target: recombinant TDP1 (Homo sapiens, UniProt Q9NUW8); experiment: Recombinant TDP1 assay; assay type: biochemical; settings: recombinant TDP1, gel-based; read-out: TDP1: IC50 values for the inhibition of TDP1
recombinant TDP1, sequence (Q9NUW8 whole entry, species assumed): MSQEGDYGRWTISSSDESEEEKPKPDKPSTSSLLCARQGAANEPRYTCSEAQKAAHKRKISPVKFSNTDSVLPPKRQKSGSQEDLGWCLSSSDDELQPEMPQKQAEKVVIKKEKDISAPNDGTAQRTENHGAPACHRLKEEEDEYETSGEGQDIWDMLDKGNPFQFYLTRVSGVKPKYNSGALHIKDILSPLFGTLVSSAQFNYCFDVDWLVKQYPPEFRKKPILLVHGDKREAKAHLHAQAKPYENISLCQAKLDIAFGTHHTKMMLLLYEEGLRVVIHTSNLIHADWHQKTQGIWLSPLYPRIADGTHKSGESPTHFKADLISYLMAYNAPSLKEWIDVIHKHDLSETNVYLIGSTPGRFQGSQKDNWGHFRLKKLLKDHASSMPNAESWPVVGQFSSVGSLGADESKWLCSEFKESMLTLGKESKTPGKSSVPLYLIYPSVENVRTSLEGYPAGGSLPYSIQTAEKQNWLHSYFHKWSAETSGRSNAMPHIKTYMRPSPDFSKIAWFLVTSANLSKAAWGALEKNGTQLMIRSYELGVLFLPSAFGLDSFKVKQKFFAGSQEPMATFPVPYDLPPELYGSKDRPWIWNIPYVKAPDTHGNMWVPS
Method: A 5′-[^32P]-labeled single-stranded DNA oligonucleotide containing a 3′-phosphotyrosine (N14Y) was incubated at 1 nM with 10 pM recombinant TDP1 in the absence or presence of inhibitor for 15 min at room temperature in the LMP1 assay buffer containing 50 mM Tris HCl, pH 7.5, 80 mM KCl, 2 mM EDTA, 1 mM DTT, 40 μg/mL BSA, and 0.01% Tween-20^18. […] Gels were dried and exposed to a PhosphorImager screen (GE Healthcare). Gel images were scanned using a Typhoon 8600 (GE Healthcare), and densitometry analyses were performed using ImageQuant software (GE Healthcare).
TDP1 is involved in the repair of DNA damage that results from the action of Top1 poisons, which induce the formation of DNA-protein adducts that include a 3′-phosphotyrosyl linkage. The TDP1 inhibition assay assesses a test agent's ability to inhibit the enzyme-induced cleavage of a 5′-^32P, 3′-phosphotyrosyl-DNA oligonucleotide, called N14Y. Cleavage of the phosphodiester bond between the 3′-phosphate and tyrosine releases […] from the DNA oligonucleotide. The enzyme-processed DNA oligonucleotide lacking its 3′-phosphotyrosyl moiety is designated N14P. A schematic representation of the assay and a representative gel are shown in FIG. 2, and the TDP1 screening results are listed in Table 1.

[13] = target: T2, recombinant human TDP2 (Homo sapiens, UniProt O95551); experiment: Recombinant TDP2 assay; assay type: biochemical; settings: recombinant human TDP2, gel-based; read-out: TDP2: IC50 values for the inhibition of TDP2
T2 sequence (O95551 1-362): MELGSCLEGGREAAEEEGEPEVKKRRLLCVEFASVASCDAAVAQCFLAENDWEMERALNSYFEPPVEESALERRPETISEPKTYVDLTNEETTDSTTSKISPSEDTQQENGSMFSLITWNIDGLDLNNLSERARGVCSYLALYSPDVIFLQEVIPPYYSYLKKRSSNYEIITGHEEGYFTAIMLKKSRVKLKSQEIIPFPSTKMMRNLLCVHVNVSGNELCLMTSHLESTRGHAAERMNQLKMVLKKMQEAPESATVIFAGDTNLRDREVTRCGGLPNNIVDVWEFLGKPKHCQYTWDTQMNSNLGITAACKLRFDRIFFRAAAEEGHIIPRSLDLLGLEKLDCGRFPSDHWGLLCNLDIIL
Excerpt: Reactions were terminated and treated similarly to recombinant TDP1 reactions.
TDP2, as opposed to TDP1, cleaves the phosphotyrosyl linkage in 5′-phosphotyrosyl-DNA oligonucleotides.

[14] = system: 60 human cancer cell lines; experiment: NCI-60 single-dose cytotoxicity assay; assay type: cell-based; settings: mean-graph midpoint of percent growth of 60 human cancer cell lines, 10 μM drug, 48 h, relative to no-drug control and time zero
Method: as §1

[15] = 5 dose assay, 10^−8-10^−4 M, average over tested cell lines

SMILES | GI50 [1] [nM] | GI50 [2] [nM] | GI50 [3] [nM] | GI50 [4] [nM] | GI50 [5] [nM] | GI50 [6] [nM] | GI50 [7] [nM] | GI50 [8] [nM] | GI50 [9] [nM] | Top 1: compound-induced DNA cleavage due to Top1 poisoning [10] | melting point | GI50 [7, 15] [nM] | Top1 inhibitory activity [11] | IC50 [12] | IC50 [13] [nM] | activity at 10 µM [14] [%] | Mean Growth % [14] [%]
CC[C@@]1(O)C(=O)OCc2c1cc1n(c2=O)Cc2cc3ccccc3nc2-1 [Compound 1, camptothecin, reference compound] | 10 | 10 | 220 | 10 | 30 | 20 | 40.5 | 10 | 10 |  |  |  |  |  |  |  | 
CN(C)CCCn1c2c(c3ccncc3c1=O)C(=O)c1ccccc1-2 [Compound 46, 3-Aza-5,6-dihydro-6-(3-(dimethylamino)propyl)-5,11-dioxo-11H-indeno[1,2-c]isoquinoline] |  |  | 2000 |  | 380 |  |  |  |  | ++ (++, between 50 and 75% activity) | 168 to 170 °C | 977 |  |  |  |  | 
O=C1c2ccccc2-c2c1c1ccccc1c(=O)n2CCCNCCCNCCCn1c2c(c3ccccc3c1=O)C(=O)c1ccccc1-2 [Compound 5] |  |  |  |  |  |  |  |  |  |  |  |  | potent |  |  |  | 
CN(C)CCCn1c2c(c3cccnc3c1=O)C(=O)c1ccccc1-2 [Compound 47, 4-Aza-5,6-dihydro-6-(3-(dimethylamino)propyl)-5,11-dioxo-indeno[1,2-c]isoquinoline] | 1910 |  | 2400 |  | 437 | 1120 |  | 1290 | 363 | +++ (+++, between 75 and 95% activity) | 183 to 184 °C | 1260 |  | ~111000 nM | > 111000 | 5.45 | 
O=C1c2ccccc2-c2c1c1ncccc1c(=O)n2C[C@H](O)CO [Compound 48, (2′S)-1-Aza-5,6-dihydro-6-(2′,3′-dihydroxypropyl)-5,11-dioxo-indeno[1,2-c]isoquinoline] |  |  |  |  |  |  |  |  |  | + (+, between 20 and 50%activity) | 245 to 250 °C (dec.) |  |  | > 111000 nM | > 111000 |  | 100
CN(C)CCCn1c2c(c3cnccc3c1=O)C(=O)c1ccccc1-2 [Compound 45, 2-Aza-5,6-dihydro-6-(3-(dimethylamino)propyl)-5,11-dioxo-indeno[1,2-c]isoquinoline] | 490 |  | 1100 | 398 | 245 | 288 |  | 309 | 245 | ++ (++, between 50 and 75% activity) | 177 to 178 °C | 437 |  | 63000 nM | 37000 | -8.83 | 
NCCCn1c2c(c3cccnc3c1=O)C(=O)c1ccccc1-2 [Compound 60, 6-(3-Aminopropyl)-4-aza-5,6-dihydro-5,11-dioxo-indeno[1,2-c]isoquinoline Dihydrochloride] | 1910 |  | 2290 | 1450 | 537 | 1120 |  | 1350 | 417 | ++ (++, between 50 and 75% activity) |  | 1510 |  | 60000 nM and > 111000 nM | > 111000 | 12.2 | 
O=C1c2ccccc2-c2c1c1ncccc1c(=O)n2CCCN1CCOCC1 [Compound 36, 1-Aza-5,6-dihydro-6-(3-morpholinopropyl)-5,11-dioxo-indeno[1,2-c]isoquinoline] |  |  |  |  |  |  |  |  |  | ++ (++, between 50 and 75% activity) | 223 to 224 °C |  |  | > 111000 nM | > 111000 |  | 87.9
CN(C)CCCn1c2c(c3ncccc3c1=O)C(=O)c1ccccc1-2 [Compound 44, 1-Aza-5,6-dihydro-6-(3-(dimethylamino)propyl)-5,11-dioxo-indeno[1,2-c]isoquinoline] |  |  |  |  |  |  |  |  |  | ++ (++, between 50 and 75% activity) | 187 to 188 °C |  |  | 90000 nM | > 111000 |  | 44.4
O=C1c2ccccc2-c2c1c1ccncc1c(=O)n2CCCn1ccnc1 [Compound 42, 3-Aza-5,6-dihydro-6-(3-(1H-imidazol-1-yl)propyl)-5,11-dioxo-11H-indeno[1,2-c]isoquinoline] |  |  |  |  |  |  |  |  |  | + (+, between 20 and 50%activity) | 251 to 252 °C |  |  | > 111000 nM | > 111000 |  | 47.5
